The values that follow come from publication PMC12002339 (Proceedings of the National Academy of Sciences of the …, 2025).

For data set [1], the target named is T1, OmpF3–MlaA (Escherichia coli, UniProt P02931+P76506).
T1 sequence (P02931 23-362): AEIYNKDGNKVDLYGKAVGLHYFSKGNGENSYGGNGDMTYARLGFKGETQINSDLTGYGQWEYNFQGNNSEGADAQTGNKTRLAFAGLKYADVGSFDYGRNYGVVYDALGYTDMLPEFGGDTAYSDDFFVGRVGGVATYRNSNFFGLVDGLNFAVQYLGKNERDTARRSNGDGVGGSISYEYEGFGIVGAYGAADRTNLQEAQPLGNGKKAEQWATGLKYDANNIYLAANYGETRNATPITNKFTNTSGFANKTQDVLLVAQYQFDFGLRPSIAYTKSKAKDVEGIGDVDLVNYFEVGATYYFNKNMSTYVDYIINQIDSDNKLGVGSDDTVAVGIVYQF
T1 sequence (P76506 18-251): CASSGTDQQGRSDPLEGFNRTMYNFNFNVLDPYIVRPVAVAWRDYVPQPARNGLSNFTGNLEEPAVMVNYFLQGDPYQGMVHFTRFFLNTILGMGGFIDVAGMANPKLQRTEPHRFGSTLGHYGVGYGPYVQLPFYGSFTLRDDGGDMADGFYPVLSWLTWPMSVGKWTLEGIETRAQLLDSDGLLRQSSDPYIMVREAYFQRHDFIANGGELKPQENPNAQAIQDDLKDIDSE
The data set can be described thus: native MS of lipid-bound complex. To be noted: incubated with synthetic lipid. The data set is classed as binding.

For data set [2], the target named is T2, OmpF3 (Escherichia coli, UniProt P02931).
T2 sequence (P02931 23-362): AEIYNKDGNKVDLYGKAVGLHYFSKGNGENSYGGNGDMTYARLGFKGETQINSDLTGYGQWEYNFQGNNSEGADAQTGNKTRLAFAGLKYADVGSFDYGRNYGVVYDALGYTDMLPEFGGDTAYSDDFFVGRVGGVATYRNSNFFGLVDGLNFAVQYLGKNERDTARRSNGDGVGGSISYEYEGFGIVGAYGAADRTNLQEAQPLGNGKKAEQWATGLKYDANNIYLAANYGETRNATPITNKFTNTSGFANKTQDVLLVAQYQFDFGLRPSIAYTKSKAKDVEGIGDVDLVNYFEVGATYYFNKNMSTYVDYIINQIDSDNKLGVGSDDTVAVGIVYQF
The data set can be described thus: native MS of lipid-bound complex. The data set is classed as binding. To be noted: incubated with synthetic lipid; negative ion mode; MlaA-free trimer.

Data set [3] addresses T3, MlaC (Escherichia coli, UniProt P0ADV7).
T3 sequence (P0ADV7 22-211): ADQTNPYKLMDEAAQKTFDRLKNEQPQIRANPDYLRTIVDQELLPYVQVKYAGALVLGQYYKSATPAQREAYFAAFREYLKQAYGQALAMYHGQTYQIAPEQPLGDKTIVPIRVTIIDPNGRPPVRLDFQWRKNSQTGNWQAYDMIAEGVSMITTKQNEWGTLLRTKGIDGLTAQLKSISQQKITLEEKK
The data set can be described thus: native MS of lipid-loaded MlaC after buffer exchange. The data set is classed as binding. To be noted: 5 µM delipidated MlaC, 25 µM lipid, 5 min, 2xCMC C8E4, 200 mM ammonium acetate pH 7.0, no OmpF3–MlaA.

Data set [4] deals with the molecule itself. The data set can be described thus: native MS.

Take `CCCCCCCC/C=C\CCCCCCCC(=O)OC[C@H](COP(=O)([O-])OCC[N+](C)(C)C)OC(=O)CCCCCCC/C=C\CCCCCCCC` [DOPC]: the “degree of phospholipid binding” value was “DOPC binds with high affinity to OmpF3 and OmpF3–MlaA” in data set [1] (positive and negative ion mode); “DOPC binds with high affinity to OmpF3 and OmpF3–MlaA” in data set [2].
`CCCCCCCC/C=C\CCCCCCCC(=O)OC[C@H](COP(=O)(O)OCCN)OC(=O)CCCCCCC/C=C\CCCCCCCC` [DOPE]: the “degree of phospholipid binding” value in data set [1] (positive and negative ion mode) was “DOPE binds with intermediate affinity, and its binding is strongly increased by MlaA”.
For `CCCCCCCC/C=C\CCCCCCCC(=O)OC[C@H](COP(=O)(O)OCC(O)CO)OC(=O)CCCCCCC/C=C\CCCCCCCC` (stereo partly shown) [DOPG], the “% MlaC loaded” value in data set [3] is on record as ~ 5%.
`CCCCCCCCCCCCCCCCCC(=O)OC[C@H](COP(=O)(O)OCC(O)CO)OC(=O)CCCCCCCCCCCCCCCCC` (stereo partly shown) [DSPG]: the “degree of phospholipid binding” value in data set [1] is “Varying the degree of saturation (DSPG) or length (POPG) of the lipid chains”.
In the case of `CCCCCCCC/C=C\CCCCCCCC(=O)O[C@H](COC(=O)CCCCCCCCCCCCCCC)COP(=O)(O)OCC(O)CO` (stereo partly shown) [POPG], the “degree of phospholipid binding” value in data set [1] is “Varying the degree of saturation (DSPG) or length (POPG) of the lipid chains”.

B1: OmpF (natural protein)
chain: AEIYNKDGNKVDLYGKAVGLHYFSKGNGENSYGGNGDMTYARLGFKGETQINSDLTGYGQWEYNFQGNNSEGADAQTGNKTRLAFAGLKYADVGSFDYGRNYGVVYDALGYTDMLPEFGGDTAYSDDFFVGRVGGVATYRNSNFFGLVDGLNFAVQYLGKNERDTARRSNGDGVGGSISYEYEGFGIVGAYGAADRTNLQEAQPLGNGKKAEQWATGLKYDANNIYLAANYGETRNATPITNKFTNTSGFANKTQDVLLVAQYQFDFGLRPSIAYTKSKAKDVEGIGDVDLVNYFEVGATYYFNKNMSTYVDYIINQIDSDNKLGVGSDDTVAVGIVYQF
For B1, in data set [4], the “stoichiometry N” value is 3.

As usually defined, the stoichiometry N is a count of units in the complex or per binding partner.
